Measurements from patent US20240415804A1, “METHOD OF TREATING PANCREATIC CANCER” (University of South Florida, priority 2022, published 2024).

Experiments:
SHIP-1 [1] = assay: SHIP-1 gene and protein expression in tumors of KC-HPC mice; format: in vivo, mouse; details: API 25 mg/kg IP three times per week for 17 days, vs vehicle
Protocol: To build on these findings, the inventors then used a novel pancreatic cancer cell line, UN-KC-6141, that resembles human PC due to its expression of a mutated Kras and generated mice harboring these tumor cells, called KC-HPC mice. Such mice were treated with API at a dose of 25 mg/kg (IP) three times per week for 17 days. The inventors examined if API also targets miR-155 and regulates SHIP-1 in the tumors from KC-HPC mouse model.
(§1) All female C57BL/6 mice (6-8 weeks of age) described in this study were purchased from Envigo (Indianapolis, IN, USA) and were acclimatize for one week in a pathogen-free animal facility (University of South Florida (USF) vivarium) before injections with PC cells. To generate heterotopic pancreatic cancer (HPC) models, mice were subcutaneously injected with 1.5×10^5 murine Panc02 (HPC mice) or 5×10^6 murine UN-KC-6141 cells (KC-HPC mice), in sterile 1× phosphate buffer saline (PBS), in the lower ventral abdomen, while control (CTRL) mice received sterile 1×PBS. […]
(§2) Isolation of total RNA from digested pancreatic tumors and BM cells was performed using a RNeasy Mini Kit (Qiagen), according to the manufacturer's instructions. RT-PCR of quantified and normalized total RNA was performed using a High-Capacity cDNA RT Kit with an RNase Inhibitor (Applied Biosystems), according to the manufacturer's instructions. […]

SHIP-1 [2] = assay: SHIP-1 gene and protein expression in tumors of HPC mice; format: in vivo, mouse; details: API 25 mg/kg IP 3 times per week for 3-4 weeks, vs vehicle
Protocol: Earlier studies have shown the anti-tumor activity of API in pre-clinical experimental models of cancer^41, 62-68. The inventors have reported that API increased survival and reduced tumor growth in a heterotopic (H) mouse model of PC (HPC)^55. To investigate if API targets miR-155 and regulates SHIP-1 in the TME of an HPC mouse model, HPC mice were treated with API at a dose of 25 mg/kg (IP) 3 times per week for 3-4 weeks.
as §1, §2

O=c1cc(-c2ccc(O)cc2)oc2cc(O)cc(O)c12 [API, 40,5,7-Trihydroxyflavone, 5,7-Dihydroxy-2-(4-hydroxyphenyl)-4-benzopyrone]
SHIP-1 gene expression in tumor (SHIP-1 [1]): significantly increased
SHIP-1 protein expression in tumor (SHIP-1 [1]): significantly increased
SHIP-1 gene expression in tumor (SHIP-1 [2]): increased
SHIP-1 protein expression in tumor (SHIP-1 [2]): increased
